Experimental data as given in paper PMC9267128, “New 2-[(4-Amino-6-N-substituted-1,3,5-triazin-2-yl)methylthio]-N-(imidazolidin-2-ylidene)-4-chloro-5-methylbenzenesulfonamide Derivatives, Design, Synthesis and Anticancer Evaluation” (International Journal of Molecular Sciences, 2022).
“Also recorded” adds a separate entry of the source.

Columns and labels:
HCT-116 (colon cancer) = test: MTT cell viability assay, HCT-116; format: cell-based, human; conditions: for IC50: Homo sapiens, HCT-116, 72 h, MTT assay, 72 h of incubation; for Selectivity Index (SI) HCT-116: IC50 value toward HaCaT cells/IC50 value toward HCT-116
Method in brief: (§1)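 HCT-116 and HeLa cells in DMEM/10% FBS exposed 72 h to compounds over 1–100 µM. Viability by MTT (0.5 mg/mL, 2 h, 37 °C), formazan dissolved in DMSO and read at 550 nm; mean ± SD of at least three independent experiments.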

MCF-7 (breast cancer) = test: MTT cell viability assay, MCF-7; format: cell-based, human; conditions: for IC50: MTT assay, 72 h of incubation; for Selectivity Index (SI) MCF-7: IC50 value toward HaCaT cells/IC50 value toward MCF-7
Method in brief: (§2)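 Cells in DMEM with 10% FBS, 3 × 10^3 per well, exposed to compounds at 1–100 µM for 72 h at 37 °C. MTT at 0.5 mg/mL for 2 h, formazan dissolved in DMSO and read at 550 nm. Mean ± SD of at least three independent experiments, each in triplicate.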

HeLa (cervical cancer) = test: MTT cell viability assay, HeLa; format: cell-based, human; conditions: for IC50: Homo sapiens, HeLa, MTT assay, 72 h of incubation; for Selectivity Index (SI) HeLa: IC50 value toward HaCaT cells/IC50 value toward HeLa
Method in brief: as §1

[1] = tested on: HaCaT (human keratinocyte cell line); test: MTT cell viability assay, non-cancerous HaCaT; format: cell-based; conditions: 72 h of incubation, non-cancerous keratinocytes
Method in brief: as §2

[2] = tested on: A2780 (ovarian carcinoma cell line); test: MTT assay, wild-type p53 ovarian cancer cells A2780; format: cell-based
Method: (§3) Thus, the ability of the selected compounds to exert cytotoxic activity toward cell lines harboring mutant p53 was examined. Compounds displaying a high selectivity index (Table 6) were selected for the analysis of their activity toward ovarian and breast cancer cells with wild-type p53 (A2780, MCF-7) and mutant p53 (SKOV-3, T47D).
(§4) Cell viability was examined using the MTT [3-(4,5-dimethylthiazol-2-yl)-2,5-diphenyltetrazolium bromide] assay. Cells were seeded in 96-well plates at a density of 3 × 10^3 cells/well and treated for 72 h with the tested compounds in the concentration range of 1–100 µM. Then, MTT (0.5 mg/mL) was added to the medium and cells were further incubated for 2 h at 37 °C. In the next stage, cells were lysed with DMSO and the absorbance of the formazan solution was measured at 550 nm with a plate reader (1420 multilabel counter, Victor, Jügesheim, Germany). The experiment was performed in triplicate. Values are expressed as the mean ± SD of at least three independent experiments. Cisplatin was used as a positive control.
(§5) Compounds 48, 62, 134, 138 and 140 were further examined toward MCF7 (breast cancer cell line, ATCC, HTB-22), T47D (breast cancer cell line, DSMZ ACC 739), A2780 (ovarian carcinoma cell line, ECACC, 93112519), and SKOV3 (ovarian carcinoma cell line, ATCC, HTB-77) cells. Cells were grown in Dulbecco’s Modified Eagle Medium (DMEM) supplemented with 10% fetal bovine serum (Thermo Fisher Scientific).

[3] = tested on: SKOV3 (ovarian carcinoma cell line); test: MTT assay, mutant p53 ovarian cancer cells SKOV-3; format: cell-based
Method: as §3, §4, §5

[4] = tested on: MCF7 (breast cancer cell line, ATCC, HTB-22); test: MTT assay, wild-type p53 breast cancer cells MCF-7 (Table 11); format: cell-based, human; conditions: 72 h of incubation, wild-type p53, second determination
Method: as §3, §4, §5

[5] = tested on: T47D (breast cancer cell line); test: MTT assay, mutant p53 breast cancer cells T47D; format: cell-based; conditions: 72 h of incubation
Method: as §3, §4, §5

MDM2-p53 interactions = test: Western blot of MDM2 and p53 protein levels in MCF-7 cells; format: cell-based, human; conditions: 4 µM and 10 µM, 24-h incubation
Method: Thus, the effects of the examined compounds on the inhibition of MDM2-p53 interactions were examined. MDM2 and p53 protein levels were determined with Western blot analysis after the treatment of MCF-7 cells with compounds selected for their high selectivity index (48, 62, 134, 138, and 140). Compounds were examined at different concentrations (4 µM and 10 µM) following a 24-h incubation (Figure 7).
Proteins were transferred to an Immobilon-P PVDF membrane (Merck Millipore, Burlington, MA, USA). The membranes were incubated for 1 h using 5% low-fat milk solution in 1× TBS (50 mM Tris-Cl, pH 7.5, 150 mM NaCl) as a blocking buffer and then overnight at 4 °C in the same blocking solution containing one of the following antibodies: anti-MDM2 (rabbit, Sigma-Aldrich AB-166, Burlington, MA, USA), anti-p53 (rabbit, Sigma-Aldrich S15) or α-tubulin (rabbit, 11H10, Cell Signaling, Danvers, MA, USA). After washing (3 × 10 min in TBS), membranes were incubated for 2 h in room temperature with the adequate HRP-conjugated secondary antibody: goat anti-rabbit IgG (1:5000, Abcam, Cambridge, UK; cat. 97051). Membranes were developed using an HRP detection kit WesternBright Quantum (Advansta, San Jose, CA, USA; cat. K-12042).

HCT-116, MCF-7 and HeLa = test: MTT cytotoxicity, summary statements on all tested tumor cell lines together; format: cell-based, human; conditions: MTT 72 h
Method: Compounds 20–162 were evaluated in vitro for their effects on the viability of three cancer cell lines: HCT-116 (colon cancer), MCF-7 (breast cancer) and HeLa (cervical cancer), as well as the non-cancerous keratinocyte cell line (HaCaT). […] Analysis was performed using an MTT assay after 72 h of incubation.
as §4

[6] = Homo sapiens, A2780, 72 h of incubation
[7] = Homo sapiens, SK-OV-3, 72 h of incubation

**Q.** How did the IC50 (HCT-116 (colon cancer)) turn out when Cc1cc(S(=O)(=O)N=C2NCCN2Cc2ccc(C(F)(F)F)cc2)c(SCc2nc(N)nc(N3CCN(c4ccc(Cl)c(Cl)c4)CC3)n2)cc1Cl [Compound 138] was run?
**A.** 6 ± 0.2 µM

**Q.** What about the IC50 (MCF-7 (breast cancer); Homo sapiens, MCF7, 72 h) of the same compound?
**A.** 9 ± 0.5 µM

**Q.** What about the IC50 (HeLa (cervical cancer)) of the same compound?
**A.** 9 ± 0.6 µM

**Q.** What about the IC50 ([1]; Homo sapiens, HaCaT, 72 h) of the same compound?
**A.** 22 ± 1 µM

**Q.** What about the IC50 [2, 6] of the same compound?
**A.** 2.2 ± 0.1 µM

**Q.** And the IC50 [3, 7]?
**A.** 5.8 ± 0.1 µM

**Q.** And the IC50 ([4]; Homo sapiens, MCF7)?
**A.** 8.2 ± 0.1 µM

**Q.** What about the IC50 ([5]; Homo sapiens, T47D) of the same compound?
**A.** 4.4 ± 0.1 µM

**Q.** And the “MDM2 and p53 protein levels” value (MDM2-p53 interactions)?
**A.** no changes

**Q.** How did the IC50 (HCT-116 (colon cancer)) turn out when Cc1cc(S(=O)(=O)N=C2NCCN2Cc2ccccc2)c(SCc2nc(N)nc(N3CCN(c4ccc([N+](=O)[O-])cc4)CC3)n2)cc1Cl [Compound 67] was run?
**A.** 168 ± 8 µM

**Q.** And the IC50 (MCF-7 (breast cancer); Homo sapiens, MCF7, 72 h)?
**A.** 153 ± 5 µM

**Q.** What about the IC50 (HeLa (cervical cancer)) of the same compound?
**A.** 140 ± 7 µM

**Q.** And the “cytotoxic activity for all tested cell lines (in words)” value (shortened to “cytotoxic activity”) (HCT-116, MCF-7 and HeLa)?
**A.** inactive; also recorded: loss of activity

**Q.** With Cc1cc(S(=O)(=O)N=C2NCCN2Cc2ccc(C(F)(F)F)cc2)c(SCc2nc(N)nc(N(C)C)n2)cc1Cl [Compound 118] as the compound, how does the IC50 (HCT-116 (colon cancer)) read?
**A.** 105 ± 4 µM

**Q.** And the IC50 (MCF-7 (breast cancer); Homo sapiens, MCF7, 72 h)?
**A.** 10 ± 0.5 µM

**Q.** And the IC50 (HeLa (cervical cancer))?
**A.** 115 ± 2 µM

**Q.** What about the IC50 ([1]; Homo sapiens, HaCaT, 72 h) of the same compound?
**A.** > 500 µM

**Q.** What about the “cytotoxic activity” value (HCT-116, MCF-7 and HeLa) of the same compound?
**A.** inactive

**Q.** Which results are given for Cc1cc(S(=O)(=O)N=C2NCCN2Cc2ccccc2)c(SCc2nc(N)nc(N3CCN(S(=O)(=O)c4ccccc4)CC3)n2)cc1Cl [Compound 70]?
**A.** IC50 (HCT-116 (colon cancer)): 300 ± 18 µM; IC50 (MCF-7 (breast cancer); Homo sapiens, MCF7, 72 h): 490 ± 10 µM; IC50 (HeLa (cervical cancer)): 550 ± 21 µM; cytotoxic activity for all tested cell lines (in words) (HCT-116, MCF-7 and HeLa): loss of activity

**Q.** Which IC50 (HCT-116 (colon cancer)) does the source give for Cc1cc(S(=O)(=O)N=C2NCCN2Cc2ccccc2)c(SCc2nc(N)nc(N3CCN(c4ccc(Cl)cc4)CC3)n2)cc1Cl [Compound 62] here?
**A.** 6 ± 0.1 µM

**Q.** And the “Selectivity Index (SI) HCT-116” value (HCT-116 (colon cancer))?
**A.** 5.3

**Q.** And the IC50 (MCF-7 (breast cancer); Homo sapiens, MCF7, 72 h)?
**A.** 7 ± 0.1 µM

**Q.** What about the “Selectivity Index (SI) MCF-7” value (MCF-7 (breast cancer)) of the same compound?
**A.** 4.5

**Q.** What about the IC50 (HeLa (cervical cancer)) of the same compound?
**A.** 107 ± 1 µM

**Q.** What about the “Selectivity Index (SI) HeLa” value (HeLa (cervical cancer)) of the same compound?
**A.** 0.3

**Q.** And the IC50 ([1]; Homo sapiens, HaCaT, 72 h)?
**A.** 32 ± 1 µM

**Q.** What about the IC50 [2, 6] of the same compound?
**A.** 3.9 ± 0.1 µM

**Q.** And the IC50 [3, 7]?
**A.** 10.1 ± 0.1 µM

**Q.** And the IC50 ([4]; Homo sapiens, MCF7)?
**A.** 10.4 ± 0.1 µM

**Q.** And the IC50 ([5]; Homo sapiens, T47D)?
**A.** 4.9 ± 0.1 µM

**Q.** And the “MDM2 and p53 protein levels” value (MDM2-p53 interactions)?
**A.** no changes

**Q.** How did the IC50 (MCF-7 (breast cancer)) turn out when N.N.[Cl][Pt][Cl] [cisplatin, reference compound] was run?
**A.** 3 ± 0.1 µM

**Q.** What about the IC50 [1] of the same compound?
**A.** 7.7 ± 0.2 µM

**Q.** And the IC50 ([2]; 72 h of incubation)?
**A.** 1.4 ± 0.1 µM

**Q.** And the IC50 ([3]; 72 h of incubation)?
**A.** 71 ± 0.1 µM

**Q.** And the IC50 [4]?
**A.** 3 ± 0.1 µM

**Q.** And the IC50 [5]?
**A.** 3.1 ± 0.1 µM

**Q.** What does the source list for Cc1ccc(S(=O)(=O)N2CCN(c3nc(N)nc(CSc4cc(Cl)c(C)cc4S(=O)(=O)N=C4NCCN4Cc4ccccc4)n3)CC2)cc1 [Compound 71]?
**A.** IC50 (HCT-116 (colon cancer)): 155 ± 6 µM; IC50 (MCF-7 (breast cancer); Homo sapiens, MCF7, 72 h): 205 ± 4 µM; IC50 (HeLa (cervical cancer)): 265 ± 8 µM; IC50 ([1]; Homo sapiens, HaCaT, 72 h): 27 ± 1 µM; cytotoxic activity for all tested cell lines (in words) (HCT-116, MCF-7 and HeLa): loss of activity

**Q.** How did the IC50 (HCT-116 (colon cancer)) turn out when Cc1cc(S(=O)(=O)N=C2NCCN2)c(SCc2nc(N)nc(N3CCN(C)CC3)n2)cc1Cl [Compound 30] was run?
**A.** 170 ± 3 µM

**Q.** And the IC50 (MCF-7 (breast cancer); Homo sapiens, MCF7, 72 h)?
**A.** 145 ± 7 µM

**Q.** And the IC50 (HeLa (cervical cancer))?
**A.** 153 ± 5 µM

**Q.** And the “cytotoxic activity” value (HCT-116, MCF-7 and HeLa)?
**A.** inactive

**Q.** Cc1cc(S(=O)(=O)N=C2NCCN2Cc2ccc(C(F)(F)F)cc2)c(SCc2nc(N)nc(N3CCN(c4ccc(C(F)(F)F)cc4)CC3)n2)cc1Cl [Compound 134] was tested. Which IC50 (HCT-116 (colon cancer)) did it give?
**A.** 5 ± 0.2 µM

**Q.** And the “Selectivity Index (SI) HCT-116” value (HCT-116 (colon cancer))?
**A.** 4.4

**Q.** And the IC50 (MCF-7 (breast cancer); Homo sapiens, MCF7, 72 h)?
**A.** 11 ± 0.1 µM

**Q.** What about the “Selectivity Index (SI) MCF-7” value (MCF-7 (breast cancer)) of the same compound?
**A.** 2.0

**Q.** What about the IC50 (HeLa (cervical cancer)) of the same compound?
**A.** 10 ± 0.6 µM

**Q.** And the “Selectivity Index (SI) HeLa” value (HeLa (cervical cancer))?
**A.** 2.2

**Q.** And the IC50 ([1]; Homo sapiens, HaCaT, 72 h)?
**A.** 22 ± 1 µM

**Q.** What about the IC50 [2, 6] of the same compound?
**A.** 3.9 ± 0.1 µM

**Q.** And the IC50 [3, 7]?
**A.** 5.7 ± 0.1 µM

**Q.** What about the IC50 ([4]; Homo sapiens, MCF7) of the same compound?
**A.** 7.8 ± 0.1 µM

**Q.** And the IC50 ([5]; Homo sapiens, T47D)?
**A.** 3.2 ± 0.1 µM

**Q.** What about the “MDM2 and p53 protein levels” value (MDM2-p53 interactions) of the same compound?
**A.** no changes
